Results from patent publication US20070248630A1, “PHARMACEUTICAL FORMULATIONS FOR IONTOPHORETIC METHOTREXATE DELIVERY” (priority 2006, published 2007).

Tests used:
[1] = cited from earlier work
[2] = In vitro iontophoretic delivery of MTX through hairless (nude) rat skin, Franz diffusion cells; assay type: in vitro ADME
Protocol: The delivery of MTX under 30 mins of iontophoresis (0.4 mA/cm^2) was studied at buffer strengths 0.05-0.5 M and drug concentrations 10-20 mg/ml. The effect of current density and time of application on the delivery of MTX is studied by optimizing the full-factorial design. The current density (X1) and time of application (X2) are the independent factors chosen for the factorial design with 4 and 5 levels, respectively in the range of 0.05-0.5 mA (X1) and 10-120 mins (X2).
In vitro iontophoretic experiments (n≧3) were performed using freshly excised hairless rat skin mounted on vertical Franz diffusion cells with stratum corneum facing towards the donor chamber. The donor compartment contained 15 mg/ml of MTX in phosphate buffer of pH 7.4 (0.25 M) and the receptor compartment contained phosphate buffer of pH 7.4 (0.25 M) with 75 mM NaCl.
A silver-silver chloride electrode (cathode) was placed in the donor chamber and silver wire (anode) was placed in the receptor compartment. Samples were taken at periodic intervals and were analyzed by HPLC, using YMC RP 18 column. Mobile Phase was composed of monobasic sodium phosphate (10%) and Tris HCl buffer (90%). Flow rate was 1.5 ml/min and detection wavelength was 303 nm.

delivery at 15 versus 20 mg/ml ([2]; 0.25 M buffer strength, 30 mins iontophoresis 0.4 mA/cm^2): not statistically different
amount of drug delivered, effect of MTX concentration 10 to 15 mg/ml ([2]; 0.25 M buffer strength, 30 mins iontophoresis 0.4 mA/cm^2, FIG. 2): increased
delivery, increase in time of application from 10-120 mins ([2]; at 0.05 mA): did not show any enhanced delivery
maximal flux ([2]; buffer strength 0.25 M, drug concentration 15 mg/ml, across hairless rat skin): about 0.6 μg/cm^2-hr
cumulative amount of MTX delivered, effect of increase in current density and time of application ([2]; factorial design, 0.05-0.5 mA, 10-120 mins, 15 mg/ml MTX, phosphate buffer pH 7.4 0.25 M, FIG. 3, 4): also increased
SMILES: CN(Cc1cnc2nc(N)nc(N)c2n1)c1ccc(C(=O)N[C@@H](CCC(=O)O)C(=O)O)cc1 [MTX, Methotrexate]
charge at physiological pH [1]: negatively charged
cumulative amount delivered, increase in current density from 0.05 to 0.5 mA ([2]; 10 min iontophoresis): did not show a statistically significant increase
cumulative amount of MTX delivered across hairless rat skin, effect of buffer ionic strength ([2]; 30 mins iontophoresis 0.4 mA/cm^2, buffer strengths 0.05-0.5 M, FIG. 1): increased with decrease in ionic strength of the buffer
cumulative amount of drug delivered versus model prediction ([2]; current density 0.4 mA/cm^2, ITP for 30 mins): in between the lower and upper 95% confidence level
